Reference: patent US11117894B2, “Pyridopyrazine compounds and uses thereof” (CITY OF HOPE, priority 2017, dated 2021)

Legend:
A2058 melanoma = assay: MTS cell viability assay, A2058 melanoma cell line; assay type: cell-based; details: 48 h; for Viability % CTL A2058 melanoma: Table 1, screened at 10 μM; for Viability (% CTL) at 10 μM A2058 melanoma: Table 2, 10 μM; for IC50: Homo sapiens, MTS; for Viability % CTL A2058 melanoma (10 μM): Table 4, 10 μM
Experimental: (§1) MTS assays were performed for cell viability. To determine if novel pyridopyrazine derivatives have antitumor activities, compounds were screened at 10 μM final concentration with A2058 melanoma and DU145 prostate cancer cell lines. Compounds #16 and #17 were selected to determine IC50 values against lung cancer cell lines, including A549, DMS273, H69, H513, H2461, DMS114, H358 and H2596. In this assay, cells (5000/well) were seeded in 96-well plates, incubated overnight at 37° C. in 5% CO2, and exposed to 10 μM of compounds or in a dose-dependent manner for 48 h. After 48 h treatment with compounds, MTS dye (20 μL/well) was added to 96-well plates. Viable cell numbers were determined by tetrazolium conversion to its formazan dye. Absorbance was measured at 490 nm using an automated ELISA plate reader. Dimethyl sulfoxide (DMSO) was used as the vehicle control. Each experiment was conducted in triplicate. IC50 values were determined using CalcuSyn software (Biosoft).

DU145 prostate cancer = assay: MTS cell viability assay, DU145 prostate cancer cell line; assay type: cell-based; details: 48 h; for Viability % CTL DU145 prostate: Table 1, screened at 10 μM; for Viability (% CTL) at 10 μM DU145 prostate: Table 2; for IC50: Homo sapiens, DU-145, DU145 prostate cancer, MTS; for Viability % CTL DU145 prostate (10 μM ): Table 4
Experimental: as §1

SMILES	Viability % CTL A2058 melanoma (A2058 melanoma) [% CTL]	Viability % CTL DU145 prostate (DU145 prostate cancer) [% CTL]	other results
Cc1nc2nccnc2cc1NC(=O)c1ccccc1 [Compound 06A]	85	94	–
COc1cc(C(=O)Nc2cc3nccnc3nc2C)cc(OC)c1OC [Compound 07A]	82	122	–
Cc1nc2nc(Nc3ccccc3)cnc2cc1NC(=O)c1ccccc1 [Compound 8, N-(6-Methyl-3-(phenylamino)pyrido[2,3-b]pyrazin-7-yl)benzamide]	–	–	Viability (% CTL) at 10 μM A2058 melanoma (A2058 melanoma): 81 % CTL; Viability (% CTL) at 10 μM DU145 prostate (DU145 prostate cancer): 90 % CTL
Cc1ccc(C(=O)Nc2cc3nccnc3nc2C)cc1 [Compound 08A]	80	96	–
Cc1ccc(C(=O)Nc2cc3ncc(Nc4ccccc4)nc3nc2C)cc1 [Compound 9, 4-Methyl-N-(6-methyl-3-(phenylamino)pyrido[2,3-b]pyrazin-7-yl)benzamide]	–	–	Viability (% CTL) at 10 μM A2058 melanoma (A2058 melanoma): 66 % CTL; Viability (% CTL) at 10 μM DU145 prostate (DU145 prostate cancer): 82 % CTL
Cc1nc2nccnc2cc1NC(=O)c1cccc(C(F)(F)F)c1 [Compound 09A]	74	103	–
Cc1nc2nc(Nc3ccccc3)cnc2cc1NC(=O)c1ccc([N+](=O)[O-])cc1 [Compound 10, N-(6-Methyl-3-(phenylamino)pyrido[2,3-b]pyrazin-7-yl)-4-nitrobenzamide]	–	–	Viability (% CTL) at 10 μM A2058 melanoma (A2058 melanoma): 86 % CTL; Viability (% CTL) at 10 μM DU145 prostate (DU145 prostate cancer): 97 % CTL
Cc1nc2nccnc2cc1NC(=O)c1ccc(Br)cc1F [Compound 10A]	93	95	–
COc1cc(C(=O)Nc2cc3ncc(Nc4ccccc4)nc3nc2C)cc(OC)c1OC [Compound 11, 3,4,5-Trimethoxy-N-(6-methyl-3-(phenylamino)pyrido[2,3-b]pyrazin-7-yl)benzamide]	–	–	Viability (% CTL) at 10 μM A2058 melanoma (A2058 melanoma): 83 % CTL; Viability (% CTL) at 10 μM DU145 prostate (DU145 prostate cancer): 105 % CTL
Cc1nc2nccnc2cc1NC(=O)c1ccc([N+](=O)[O-])cc1 [Compound 11A]	87	106	–
Cc1nc2nc(Nc3ccccc3)cnc2cc1NC(=O)c1cccc(C(F)(F)F)c1 [Compound 12, N-(6-Methyl-3-(phenylamino)pyrido[2,3-b]pyrazin-7-yl)-3-(trifluoromethyl)benzamide]	69	93	–
Cc1nc2nccnc2cc1NC(=O)c1ccc(N)cc1 [Compound 12A]	84	99	–
Cc1nc2nccnc2cc1NC(=O)CN1CCN(C)CC1 [Compound 13A]	94	86	–
Cc1nc2nc(Nc3ccccc3)cnc2cc1NC(=O)c1ccc(NC(=O)Nc2ccccc2)cc1 [Compound 14, N-(6-Methyl-3-(phenylamino)pyrido[2,3-b]pyrazin-7-yl)-4-(3-phenylureido)benzamide]	–	–	Viability (% CTL) at 10 μM A2058 melanoma (A2058 melanoma): 75 % CTL; Viability (% CTL) at 10 μM DU145 prostate (DU145 prostate cancer): 80 % CTL
Cc1nc2nccnc2cc1NC(=O)CN(C)C [Compound 14A]	106	101	–
Cc1nc2nc(Nc3ccccc3)cnc2cc1NC(=O)Nc1ccccc1 [Compound 15, 1-(6-Methyl-3-(phenylamino)pyrido[2,3-b]pyrazin-7-yl)-3-phenylurea]	–	–	Viability (% CTL) at 10 μM A2058 melanoma (A2058 melanoma): 5 % CTL; Viability (% CTL) at 10 μM DU145 prostate (DU145 prostate cancer): 4 % CTL
Cc1nc2nccnc2cc1NC(=O)Nc1ccccc1 [Compound 15A]	73	104	–
Cc1nc2nc(Sc3ccccc3)cnc2cc1NC(=O)c1cccc(C(F)(F)F)c1 [Compound 15B]	61	113	–

SMILES	Viability % CTL A2058 melanoma (A2058 melanoma) [% CTL]	Viability % CTL DU145 prostate (DU145 prostate cancer) [% CTL]	other results
Cc1nc2nccnc2cc1NC(=O)Nc1ccc(F)c(Cl)c1 [Compound 16A]	96	99	–
Cc1nc2nc(Sc3ccccc3)cnc2cc1NC(=O)c1ccccc1C(F)(F)F [Compound 16B]	84	120	–
Cc1nc2nccnc2cc1NC(=O)Nc1cccc(C(F)(F)F)c1 [Compound 17A]	79	98	–
Cc1nc2nc(Sc3ccccc3)cnc2cc1NC(=O)Nc1cccc(C(F)(F)F)c1 [Compound 17B]	56	101	–
CSc1ccc(NC(=O)Nc2cc3ncc(Nc4ccccc4)nc3nc2C)cc1 [Compound 18, 1-(6-Methyl-3-(phenylamino)pyrido[2,3-b]pyrazin-7-yl)-3-(4-(methylthio)phenyl)urea]	–	–	IC50 (A2058 melanoma): 1.3 µM; Viability % CTL A2058 melanoma (10 μM) (A2058 melanoma): 7 % CTL; IC50 (DU145 prostate cancer): 2.4 µM; Viability % CTL DU145 prostate (10 μM ) (DU145 prostate cancer): 6 % CTL
Cc1nc2nccnc2cc1NC(=S)NCc1ccccc1 [Compound 18A]	74	89	–
Cc1nc2nc(Sc3ccccc3)cnc2cc1NC(=O)Nc1ccc(F)c(Cl)c1 [Compound 18B]	83	124	–
Cc1nc2nc(Nc3ccccc3)cnc2cc1NC(=O)Nc1ccc(Cl)cc1Cl [Compound 19, 1-(2,4-Dichlorophenyl)-3-(6-methyl-3-(phenylamino)pyrido[2,3-b]pyrazin-7-yl)urea]	–	–	Viability % CTL A2058 melanoma (10 μM) (A2058 melanoma): 60 % CTL; Viability % CTL DU145 prostate (10 μM ) (DU145 prostate cancer): 50 % CTL
Cc1ccc(S(=O)(=O)Nc2cc3nccnc3nc2C)cc1 [Compound 19A]	59	122	–
CSc1ccc(NC(=O)Nc2cc3ncc(Sc4ccccc4)nc3nc2C)cc1 [Compound 19B]	89	113	–
Cc1nc2nc(Sc3ccccc3)cnc2cc1NC(=O)Nc1ccc(F)c([N+](=O)[O-])c1 [Compound 20B]	84	89	–
Cc1nc2nc(Nc3ccccc3)cnc2cc1NC(=O)CN(C)C [Compound 24E]	–	–	Viability (% CTL) at 10 μM A2058 melanoma (A2058 melanoma): 84 % CTL; Viability (% CTL) at 10 μM DU145 prostate (DU145 prostate cancer): 102 % CTL
Cc1nc2nc(Nc3ccccc3)cnc2cc1NC(=O)CN1CCN(C)CC1 [Compound 25E]	–	–	Viability (% CTL) at 10 μM A2058 melanoma (A2058 melanoma): 85 % CTL; Viability (% CTL) at 10 μM DU145 prostate (DU145 prostate cancer): 83 % CTL
Cc1nc2nc(Nc3ccccc3)cnc2cc1NC(=O)CNc1ccccc1 [Compound 26E]	–	–	Viability (% CTL) at 10 μM A2058 melanoma (A2058 melanoma): 93 % CTL; Viability (% CTL) at 10 μM DU145 prostate (DU145 prostate cancer): 85 % CTL
CCN(CC)CCNCC(=O)Nc1cc2ncc(Nc3ccccc3)nc2nc1C [Compound 27E]	–	–	Viability (% CTL) at 10 μM A2058 melanoma (A2058 melanoma): 85 % CTL; Viability (% CTL) at 10 μM DU145 prostate (DU145 prostate cancer): 82 % CTL
CCOC(=O)c1ccc(Nc2cnc3cc(NC(=O)Nc4ccc(F)c(Cl)c4)c(C)nc3n2)cc1 [Compound 28, Ethyl 4-((7-(3-(3-chloro-4-fluorophenyl)ureido)-6-methylpyrido[2,3-b]pyrazin-3-yl)amino)benzoate]	–	–	IC50 (A2058 melanoma): 7.1 µM; Viability % CTL A2058 melanoma (10 μM) (A2058 melanoma): 35 % CTL; IC50 (DU145 prostate cancer): 9.9 µM; Viability % CTL DU145 prostate (10 μM ) (DU145 prostate cancer): 40 % CTL
CCOC(=O)c1ccc(Nc2cnc3cc(NC(=O)Nc4cccc(C(F)(F)F)c4)c(C)nc3n2)cc1 [Compound 29, Ethyl 4-((6-methyl-7-(3-(3-(trifluoromethyl)phenyl)ureido)pyrido[2,3-b]pyrazin-3-yl)amino)benzoate]	–	–	IC50 (A2058 melanoma): 6.1 µM; Viability % CTL A2058 melanoma (10 μM) (A2058 melanoma): 37 % CTL; IC50 (DU145 prostate cancer): 12.8 µM; Viability % CTL DU145 prostate (10 μM ) (DU145 prostate cancer): 48 % CTL
CC(=O)Nc1cccc(Nc2cnc3cc(NC(=O)Nc4ccc(F)c(Cl)c4)c(C)nc3n2)c1 [Compound 30, N-(3-((7-(3-(3-Chloro-4-fluorophenyl)ureido)-6-methylpyrido[2,3-b]pyrazin-3-yl)amino)phenyl)acetamide]	–	–	Viability % CTL A2058 melanoma (10 μM) (A2058 melanoma): 118 % CTL; Viability % CTL DU145 prostate (10 μM ) (DU145 prostate cancer): 64 % CTL
